Results taken from the OPERA property sets (Mansouri et al. 2018).

Conditions: not given

Structure (SMILES)	boiling point [°C]	melting point [°C]	log10 biodegradation half-life (days)	log10 vapour pressure (mmHg)	log10 Henry constant (atm·m³/mol)	ready biodegradability	log10 Koc (L/kg)	log10 Koa
Clc1ccccc1Br	204	-12.3						
Cc1ccc2c(c1)CCC2	202		0.301					
CC(C)(C)C(=O)CC(=O)C(F)(F)C(F)(F)C(F)(F)F		38						
CCCC(C)(C)CC	112	-126	0.699	1.46				
CC(C)OP(=O)(OC(C)C)OC(C)C	219							
FC(F)(Cl)CCl	46.8	-101		2.53				
CC(=O)Oc1ccc(C)cc1C	226							
CC(O)Cn1cnc2c1c(=O)n(C)c(=O)n2C (stereo not given)		136						
c1ccc2[nH]ncc2c1	269	148						
Oc1cccc(S)c1		16.5						
Cc1cc(C)c([N+](=O)[O-])c(C)c1[N+](=O)[O-]	418	85.3						
Cc1ccccc1N.Cl	242	215						
CCC(O)CC	116			0.943				
Clc1ccc(-c2cccc(Cl)c2Cl)c(Cl)c1					-3.85			
NC(=O)C(=O)O				-6.33				
CCCc1ccccc1N	226							
ClCCCCCCl	179	-72.8		0.0531	-3.25			
CC(C)OC(C)(C)C	87.6	-88						
NS(=O)(=O)c1cc2c(cc1Cl)CN(C1CCCCC1)C2=O		267						
CCOCCOc1ccccc1	230							
CCOc1ccc2nc3cc(N)ccc3c(N)c2c1		226						
NCC[C@H](O)C(=O)N[C@@H]1C[C@H](N)[C@@H](O[C@H]2O[C@H](CN)[C@@H](O)[C@H](O)[C@H]2O)[C@H](O)[C@H]1O[C@H]1O[C@H](CO)[C@@H](O)[C@H](N)[C@H]1O		204						
COC(=O)C=C(Cl)C(=O)OC	224							
N=C(NCCCCCCNC(=N)NC(=N)Nc1ccc(Cl)cc1)NC(=N)Nc1ccc(Cl)cc1		134						
NCc1cc(O)no1		175						
CC(C)NCC(O)c1ccc2ccccc2c1 (stereo not given)		108						
O=c1[nH]c(=O)n([C@H]2CC[C@@H](CO)O2)cc1Br		180						
Cc1ncc2n1-c1ccc(Cl)cc1C(c1ccccc1F)=NC2		159						

Structure (SMILES)	boiling point [°C]	melting point [°C]	log10 biodegradation half-life (days)	log10 vapour pressure (mmHg)	log10 Henry constant (atm·m³/mol)	ready biodegradability	log10 Koc (L/kg)	log10 Koa
CC(C)(C)OCC1CO1 (stereo not given)	152	-70						
CCC(=O)c1ccc(C)cc1	236	7.2		-1.03				
CCOCCO	135	-70		0.725	-6.33	readily biodegradable		
Sc1ccccc1	169	-14.9		0.286		not readily biodegradable		
Cc1ccc(S(=O)(=O)Oc2c(C(=O)c3ccc(Cl)cc3Cl)c(C)nn2C)cc1		118						
CCCCCCCCCCCCCCCCCC1CCCCC1	397	38						
CC(C)C(=O)c1ccccc1	220	-1.3						
CCCCCCCCC=O	191			-0.432	-3.13			
CCc1ccccc1-c1ccccc1	266	-6						
CCN(Cc1c(F)cccc1Cl)c1c([N+](=O)[O-])cc(C(F)(F)F)cc1[N+](=O)[O-]		102		-6.62			4	
CNC(=O)Nc1cccc(Cl)c1							1.93	
CC[C@H]1OC(=O)[C@H](C)[C@@H](O[C@H]2C[C@@](C)(OC)[C@@H](O)[C@H](C)O2)[C@H](C)[C@@H](O[C@@H]2O[C@H](C)C[C@H](N(C)C)[C@H]2O)[C@](C)(O)C[C@@H](C)CN(C)[C@H](C)[C@@H](O)[C@]1(C)O		114						
SCCS	146	-41.2		0.749				
Cc1cccc2c1C=CC2	209							
C=C=CCCCC	106							
C=Cc1ccco1	99.5	-94						
CCOC(=O)c1ccccc1C	227							
Cc1ccnc(C)c1C	192							
Clc1cc2c(Cl)ccc(Cl)c2c(Cl)c1Cl				-6				9.1
O=C1c2ccccc2C(=O)N1CCCBr		75						
Oc1cc(Cl)ccc1Oc1ccc(Cl)cc1Cl		55.6				not readily biodegradable		
Nc1ccccc1[N+](=O)[O-]	284	71		-2.56	-7.23	not readily biodegradable		
NNC=O		55						
O=c1cc(-c2ccc(O)cc2)oc2cc(O)cc(O)c12		348						
CCCCCCCCCCCCCCCC1CCCCC1	373	29		-6.46				
O=C(O)C1(O)c2ccccc2-c2ccc(Cl)cc21 (stereo not given)		152						
CC(C)OC(=O)c1ccco1	198							

Same assay, conditions: fish

Structure (SMILES)	log10 BCF	log10 biotransformation half-life (days)
CC(CCl)OC(C)CCl (stereo not given)	1.08	-1.07
CC(CC(C)(C)C)CC(C)(C)C	2.94	0.72
Oc1c(C2CCCCC2)cccc1C1CCCCC1	3.02	0.2
Cc1ccsc1	0.72	-1.27
CC(C)c1ccc(C(C)C)cc1	3.24	0.6
C=CCOP(=O)(OCC=C)OCC=C	0.08	
Brc1ccc(Oc2ccc(Br)cc2Br)c(Br)c1	5.84	1.6
CC1(C)C(C=C(Cl)Cl)C1C(=O)OC(C#N)c1cccc(Oc2ccccc2)c1 (stereo not given)	2.53	
Cc1ccc2ccccc2c1	1.87	0.88
FC(Cl)(Cl)C(F)(Cl)Cl	1.77	
Clc1ccc(-c2cccc(Cl)c2Cl)c(Cl)c1		2.62
Oc1cc(Cl)ccc1Oc1ccc(Cl)cc1Cl	1.72	
Nc1ccccc1[N+](=O)[O-]	1	-0.46
CCCCc1ccc2cc(C)c(C)cc2c1		0.24
